This is an account of results in article PMC6964273 (ACS Omega, 2019).

By IC50 is commonly meant the concentration that gives 50% inhibition.

Series [1] has as its system cervical cancer cell line (HeLa). Briefly: MTT cell viability assay on HeLa. It is filed as cell-based, human. On the technique in general: Tetrazolium dyes change colour on reduction, which living cells bring about.
Series [2] concerns SK-MEL3 metastatic melanoma cancer cell line. Briefly: MTT cell viability assay on SK-MEL3. It is filed as cell-based, human. The settings on record: read-out: IC50 ± SD SK-MEL3.
Another series has as its system SK-MEL3 cancer cell line. Briefly: DFO assay. The format is cell-based, human.
Series [3] has as its system SK-MEL24 metastatic melanoma cancer cell line. Description: MTT cell viability assay on SK-MEL24. The format is cell-based, human. Particulars: read-out: IC50 ± SD SK-MEL24.
For series [4], the system named is SK-MEL24 cancer cell line. Briefly: DFO assay. The format is cell-based, human.
The test system of the next series is C3PV cell line. Description: MTT cell viability assay on normal primary fibroblasts C3PV. The format is cell-based, human. Particulars: for IC50: 24 h, read-out: IC50 ± SD C3PV.
The subject of series [5] is RPMI-7951 metastatic melanoma cancer cell line. Description: MTT cell viability assay on RPMI-7951. The format is cell-based, human. The settings on record: read-out: IC50 ± SD RPMI-7951.
Series [6] has as its system RPMI-7951 cancer cell line. Description: DFO assay. The format is cell-based, human.
The nature of series [7]: Stability in the cell culture medium by TLC and HPLC. The format is physicochemical. Particulars: 48 h, room temperature.
Setting [8] is: Homo sapiens, read-out: IC50 ± SD HeLa.
The mark [9] stands for this setting: Homo sapiens, SK-MEL3, 24 h, read-out: IC50 ± SD SK-MEL3 without DFO.
[10] abbreviates: Homo sapiens, SK-MEL3, read-out: IC50 ± SD SK-MEL3 with DFO.
Setting [11] is: Homo sapiens, SK-MEL-24, 24 h, read-out: IC50 ± SD SK-MEL24 without DFO.
[12] abbreviates: Homo sapiens, SK-MEL-24, read-out: IC50 ± SD SK-MEL24 with DFO.
The mark [13] stands for this setting: Homo sapiens, RPMI-7951, 24 h, read-out: IC50 ± SD RPMI-7951 without DFO.
Setting [14] is: Homo sapiens, RPMI-7951, read-out: IC50 ± SD RPMI-7951 with DFO.
[15] abbreviates: read-out: IC50 ± SD SK-MEL3 without DFO, without DFO, treatment time 24 hours.
Where [16] appears, read: read-out: IC50 ± SD SK-MEL24 without DFO, without DFO, treatment time 24 hours.
Setting [17] is: read-out: IC50 ± SD RPMI-7951 without DFO, without DFO, treatment time 24 hours.

Read-outs that look alike come from different tables or passages of the source.

Take `C[C@@H]1CC[C@H]2[C@@H](C)C(=O)O[C@@H]3O[C@@]4(C)CC[C@@H]1[C@]32OO4` [Compound 1, Artemisinin]: the IC50 in series [1] (setting [8]) is 1.37 ± 0.59 µM; in series [2] (Homo sapiens, SK-MEL3, 24 h), 3.43 ± 0.86 µM; in the series on SK-MEL3 cancer cell line (setting [9]), 3.43 ± 0.8 µM; in the series with SK-MEL3 cancer cell line (setting [10]) it was above 300 µM; in [3] (Homo sapiens, SK-MEL-24, 24 h) it was 8.66 ± 4.56 µM; in series [4] (setting [11]), 8.66 ± 0.9 µM. For the same compound, the IC50 in series [4] (setting [12]) is 27.8 ± 3.4 µM; in the series with C3PV cell line (Homo sapiens, C3PV), above 300 µM; in series [5] (Homo sapiens, RPMI-7951, 24 h) it was 3.62 ± 0.99 µM; in series [6] (setting [13]) it was 3.62 ± 1.6 µM; in [6] (setting [14]) it was 29 ± 2.8 µM. Further, in the series on C3PV cell line (C3PV, MTT), the “cytotoxicity on normal cell line C3PV (in words)” value (shortened to “cytotoxicity”) is “not cytotoxic”.
Consider `C[C@H]1[C@@H](O)O[C@@H]2O[C@@]3(C)CC[C@H]4[C@H](C)CC[C@@H]1[C@@]24OO3` [Compound 2, dihydroartemisinin], for which the IC50 in [1] (setting [8]) worked out at 1.32 ± 0.26 µM; in series [2] (Homo sapiens, SK-MEL3, 24 h) it was 10.4 ± 0.61 µM; in [3] (Homo sapiens, SK-MEL-24, 24 h), 3.23 ± 1.6 µM; with C3PV cell line (Homo sapiens, C3PV), 0.68 ± 0.19 µM; in series [5] (Homo sapiens, RPMI-7951, 24 h), 0.91 ± 0.45 µM.
In the case of `C[C@H]1[C@H](OC(=O)CCC(=O)O)O[C@@H]2O[C@@]3(C)CC[C@H]4[C@H](C)CC[C@@H]1[C@@]24OO3` [Compound 3, artesunate], the IC50 in series [1] (setting [8]) was 1.76 ± 0.38 µM; in [2] (Homo sapiens, SK-MEL3, 24 h), above 300 µM; in the series with SK-MEL3 cancer cell line (setting [9]), above 300 µM; in the series on SK-MEL3 cancer cell line (setting [10]), above 300 µM; in series [3] (Homo sapiens, SK-MEL-24, 24 h), 0.82 ± 0.37 µM; in [4] (setting [11]), 0.82 ± 0.05 µM. In addition, the IC50 is 0.9 ± 0.02 µM in series [4] (setting [12]); 1.68 ± 0.44 µM with C3PV cell line (Homo sapiens, C3PV); 1.08 ± 0.56 µM in [5] (Homo sapiens, RPMI-7951, 24 h); 1.08 ± 0.6 µM in series [6] (setting [13]); 1.09 ± 0.9 µM in [6] (setting [14]).
For `COc1cc(/C=C/C(=O)CC(=O)/C=C/c2ccc(O)c(OC)c2)ccc1O` [Compound 5, curcumin], the IC50 in series [1] (setting [8]) is 2.12 ± 0.94 µM; in series [2] (Homo sapiens, SK-MEL3, 24 h) it was 1.69 ± 1.24 µM; in series [3] (Homo sapiens, SK-MEL-24, 24 h), 3 ± 1.35 µM; in the series on C3PV cell line (Homo sapiens, C3PV), above 300 µM; in series [5] (Homo sapiens, RPMI-7951, 24 h), 3.95 ± 0.09 µM.
Turning to `C=CCc1ccc(O)c(OC)c1` [Compound 6, eugenol], the IC50 in series [1] (setting [8]) was determined as 4.68 ± 1.64 µM; in [2] (Homo sapiens, SK-MEL3, 24 h) it was 1.16 ± 0.32 µM; in [3] (Homo sapiens, SK-MEL-24, 24 h), 2.61 ± 0.34 µM; in the series with C3PV cell line (Homo sapiens, C3PV), 6.88 ± 0.085 µM; in series [5] (Homo sapiens, RPMI-7951, 24 h) it was 0.84 ± 0.34 µM.
For the compound `C=C(C)[C@@H]1CC=C(CO)CC1` [Compound 7, perillyl alcohol], the 50% inhibitory concentration (IC50) in [1] (setting [8]) came to 1.63 ± 0.4 µM; in series [2] (Homo sapiens, SK-MEL3, 24 h), 1.37 ± 0.59 µM; in series [3] (Homo sapiens, SK-MEL-24, 24 h), 2.69 ± 1.3 µM; with C3PV cell line (Homo sapiens, C3PV) it was 3.8 ± 0.28 µM; in [5] (Homo sapiens, RPMI-7951, 24 h), 1.71 ± 0.52 µM.
In the case of `OCCc1ccc(O)cc1` [Compound 8, tyrosol], the half-inhibitory concentration (IC50) in [1] (setting [8]) was found to be 1.41 ± 0.79 µM; in series [2] (Homo sapiens, SK-MEL3, 24 h), 2.53 ± 1.41 µM; in series [3] (Homo sapiens, SK-MEL-24, 24 h) it was 1.69 ± 0.15 µM; in the series on C3PV cell line (Homo sapiens, C3PV), 22.7 ± 1.83 µM; in series [5] (Homo sapiens, RPMI-7951, 24 h), 10.8 ± 1.4 µM.
The matching figures for `Cc1c(C)c2c(c(C)c1O)CC[C@@](C)(CCC[C@H](C)CCC[C@H](C)CCCC(C)C)O2` [Compound 9, α-tocopherol]: 3.03 ± 1.5 µM, 1.22 ± 0.64 µM, 2.35 ± 1.05 µM, 74.1 ± 5.09 µM and 4.11 ± 2.1 µM.
For `C=CCc1ccc(OC(=O)CCC(=O)OC2OC3OC4(C)CCC5C(C)CCC(C2C)C35OO4)c(OC)c1` (stereo not drawn) [Compound 11ii], the IC50 was found to be 1.44 ± 1.09 µM in series [1] (read-out: IC50 ± SD HeLa, MTT); 4.65 ± 1.8 µM in series [2] (SK-MEL3, MTT, 24 h); 5.44 ± 2.4 µM in series [3] (SK-MEL24, MTT, 24 h); 6.79 ± 0.15 µM in the series with C3PV cell line (normal human primary fibroblast cell line, MTT); 1.21 ± 0.63 µM in series [5] (RPMI-7951, MTT, 24 h).
In the case of `C=C(C)C1CC=C(COC(=O)CCC(=O)OC2OC3OC4(C)CCC5C(C)CCC(C2C)C35OO4)CC1` (stereo not drawn) [Compound 11iii], the IC50 in series [1] (read-out: IC50 ± SD HeLa, MTT) is 1.76 ± 0.47 µM; in series [2] (SK-MEL3, MTT, 24 h) it was 5.24 ± 2.29 µM; with SK-MEL3 cancer cell line (setting [15]), 5.24 ± 0.2 µM; in series [3] (SK-MEL24, MTT, 24 h), 0.06 ± 0.1 µM; in [4] (setting [16]) it was 0.06 ± 0.01 µM; in series [5] (RPMI-7951, MTT, 24 h), 2.35 ± 1.52 µM. Besides, the IC50 in [6] (setting [17]) came to 2.35 ± 0.9 µM. Further, the “cytotoxicity” value in the series on C3PV cell line (C3PV, MTT) is given as “not cytotoxic”.
For the compound `C[C@H]1[C@H](OC(=O)CCC(=O)Oc2ccc(CCO)cc2)O[C@@H]2O[C@@]3(C)CC[C@H]4[C@H](C)CC[C@@H]1[C@@]24OO3` [Compound 11iv], the “activity against HeLa (in words)” value in series [1] (MTT) is “inactive”. The IC50 in [1] (read-out: IC50 ± SD HeLa, MTT) was above 300 µM; in series [2] (SK-MEL3, MTT, 24 h) it was 2.33 ± 1.18 µM; in the series with SK-MEL3 cancer cell line (setting [15]), 2.33 ± 0.09 µM; in [3] (SK-MEL24, MTT, 24 h), 2.32 ± 1.19 µM; in series [4] (setting [16]) it was 2.32 ± 0.9 µM; in series [5] (RPMI-7951, MTT, 24 h), 8.34 ± 3.06 µM. The IC50 in [6] (setting [17]) came out at 8.34 ± 2.7 µM. Besides, in series [7], the “stability in the cell culture medium (ester bond; release of tyrosol)” value is on record as “No traces of tyrosol were observed”. For the same compound, the “cytotoxicity” value in the series with C3PV cell line (C3PV, MTT) was “not cytotoxic”.
With `CC(=O)O[C@H]1C(=O)[C@@]2(C)[C@H]([C@H](OC(=O)c3ccccc3)[C@]3(O)C[C@H](OC(=O)[C@H](O)[C@@H](NC(=O)c4ccccc4)c4ccccc4)C(C)=C1C3(C)C)[C@]1(OC(C)=O)CO[C@@H]1C[C@@H]2O` [paclitaxel], the IC50 in series [1] (setting [8]) amounted to 0.006 ± 0.0014 µM; in [2] (Homo sapiens, SK-MEL3, 24 h), 4.73 ± 0.83 µM; in series [3] (Homo sapiens, SK-MEL-24, 24 h), 1.04 ± 0.31 µM; in the series with C3PV cell line (Homo sapiens, C3PV) it was 78.9 ± 0.79 µM; in series [5] (Homo sapiens, RPMI-7951, 24 h), 0.013 µM.
